Values after ≈ are worked out from the molar mass of the structure shown. Square brackets hold non-standard residues; d marks the D form. Peptide text beside a SMILES is read from it. * marks the point of attachment. Palmitoyl = CCCCCCCCCCCCCCCC(=O)*; Dab = NCC[C@H](N)C(=O)O Some results are limits rather than exact numbers.

Consider 4 compounds from article PMC7728077, “Double-Headed Cationic Lipopeptides: An Emerging Class of Antimicrobials” (International Journal of Molecular Sciences, 2020).

Series [1] relates to MCF-7 breast cancer cell line. The format is cell-based, human.
The test system of series [2] is LNCaP human prostate carcinoma. The format is cell-based. On the procedure: (§1) In the case of evaluation of cytotoxicity towards different types of the cancer cell lines (A375, A549, HCT-116, HT-29, and LNCaP, respective cells were seeded in 96-well plates (4500 cell/well) in the RPMI-1640 medium supplemented with 5% FBS without antibiotics and incubated for 24 h before stimulation with the lipopeptides. The next day, the cells were exposed to the effect of the serially diluted compounds added at concentrations ranging from 1 to 25 µg/mL for a period of 48 h. After the treatment, cells viability was evaluated by means of MTT assays, according to standard protocol, as just described. The experiment was repeated three times for each cell line.
(§2) Determination of the half-maximum inhibitory concentrations (IC50) was done using GraphPad Prism 5 software (San Diego, CA, USA) based on the dose-response curves. The logarithm of the different concentrations of compounds was plotted against the percentage of inhibition in cell viability as compared with control probes, treated as 100%.

The subject of series [3] is A549 human epithelial lung carcinoma. The format is cell-based. The method, then:
as §1, §2

Series [4] relates to HT-29 human colorectal adenocarcinoma. The series is classed as cell-based. On the procedure:
as §1, §2

Series [5] has as its system HCT-116 human colorectal carcinoma. The series is classed as cell-based. On the procedure:
as §1, §2

Series [6] deals with A375 human malignant melanoma cell line. The format is cell-based. On the procedure: as §1, §2
Series [7] concerns the target POPG large unilamellar vesicles (LUVs). Briefly: Isothermal titration calorimetry, binding to POPG. The following applies: ITC, 298.15 K. On the procedure: (§3) Isothermal titration calorimetry (ITC) experiments were carried out at 298.15 K using an AutoITC isothermal titration calorimeter (MicroCal Inc., GE Healthcare, Northampton, MA, USA) equipped with a 1.4491 mL sample cell and a reference cell. A typical ITC experiment involved a series of consecutive injections of 10.02 µL aliquots of the titrant (2 µL for the first injection only) into the reaction cell, at an interval of 4 min. The stirrer speed was constantly kept at 300 rpm to provide thorough mixing inside the reaction cell. Three types of ITC experiments were performed. These included lipopeptides binding to POPG, POPC, and LPS. The experiments were carried out by titration of 1.3 mM POPG or POPC LUVs into 0.05 or 0.1 mM lipopeptide solutions and the titration of 0.5 or 0.75 mM lipopeptide solution into 200 or 400 µg/mL LPS solution. The molecular mass of LPS was assumed to be 20,000 Da. To assess the heat of dilution, control experiments were performed by titration of an appropriate titrant into PBS. Final results were evaluated with an ITC module for ORIGIN 7 software, provided by MicroCal, Inc. (Northampton, MA, USA). The binding constant, stoichiometry, and enthalpy of interactions were directly determined from ITC experiment by fitting one of the built-in curve fitting models to the experimental data points. Changes in entropy (∆S°) and the Gibbs free energy (∆G°) were calculated from the following equation: ∆G^°=−RTln(55.5Ka)=∆H^°−T∆S^° where 55.5 is the molar concentration of water, R is the gas constant (1.986 cal·mol^−1·K^−1), and T is the absolute temperature.
(In ITC the heat of successive injections is recorded.)

Series [8] is described as follows: Surface tension measurements (critical aggregation concentration). The series is classed as physicochemical. The following applies: Wilhelmy plate method, aqueous solution, 298 K; for Critical aggregation concentration (CAC): surface tension. On the procedure: The surface tension was determined in aqueous solution at 298 K by the Wilhelmy plate method using a Force Tensiometer K100 (Krüss, Hamburg, Germany). The results were presented as a function of decimal logarithm of lipopeptide concentration. The critical aggregation concentration (CAC) was defined as the intersection of two straight lines best fitting to data points before and after reaching the CAC point.

The conditions of series [9]: NMR DOSY, 700 MHz. The method, then:
NMR spectra were recorded on a Bruker AVANCE III 700 MHz spectrometer. The size of lipopeptide assemblies was determined by an NMR method measuring the self-diffusion coefficient (DOSY experiments). The lipopeptide self-diffusion coefficient, D, was measured by attenuation of the spin-echo signal intensity (I) as a function of gradient amplitude (g), expressed by the Stejskal–Tanner formula, I = I0exp[−Dg^2γ^2 δ^2(∆ − δ/3)] [39], where I0 is the echo intensity in the absence of the field gradient pulse, γ = 2.675 × 10^8 rad T^−1 s^−1 is the gyromagnetic ratio of the ^1H nucleus, δ is the duration of the field gradient pulse, and ∆ is the time period between two field gradient pulses. […] The spectra were processed and analyzed using Topspin 3.2 (Bruker, Billerica, MA, USA).

The test system of series [10] is S. epidermidis. Briefly: LIVE/DEAD SYTO9/PI bacterial viability staining, fluorescence microscopy. The format is cell-based, Staphylococcus epidermidis. The following applies: 8, 16 and 32 µg/mL (1×, 2×, 4× MIC), regardless of concentration; at least two independent replicates. The method, then: (§4) Bacteria were inoculated in the Luria–Bertani medium and cultured with shaking at 37 °C up to the early exponential phase (A600 = 0.1). Then, 1.5 mL of the cultures were transferred to 5 mL Eppendorf tubes and treated with suitable peptides added at concentrations of 1×, 2×, or 4× MIC. For the negative control, bacteria were treated with a pure vehicle (water). Next, the cells were cultured for 1 or 2 h, as indicated. To obtain a positive control, at the end of the incubation, one portion of bacteria was collected and suspended in 200 µL of 70% ethanol for 5 min. After incubation, bacteria were collected by centrifugation (10 min, 3000× g) and washed twice with 0.85% NaCl. To determine membrane integrity, bacteria were stained with a LIVE/DEAD™ BacLight™ Bacterial Viability Kit (Thermo Fisher Scientific, Waltham, MA, USA) containing two dyes, i.e., a bacterial membrane permeable SYTO9 (green fluorescence) and an impermeable propidium iodide (red fluorescence) that stains only bacteria with damaged membrane. The staining was performed according to the manufacturer instructions. Then, bacteria were collected by centrifugation and washed twice with 0.85% NaCl. Bacteria pellets were suspended in 10 µL of 0.85% NaCl. Next, 3 µL of each suspension were spotted on agarose pads, covered with coverslips and immediately imaged using fluorescence microscope (Leica DMI4000B) with 100× objective. […]

For series [11], the system named is lipopolysaccharide (LPS) E. coli 055:B5. Put plainly: Isothermal titration calorimetry, binding to LPS. The following applies: ITC, two sets of sites model. The method, then:
as §3, with “The experiments were carried out by titration of 1.3 mM POPG or POPC LUVs into 0.05 or 0.1 mM lipopeptide solutions and the titration of 0.5 or 0.75 mM lipopeptide solution into 200 or 400 µg/mL LPS solution. The molecular mass of LPS was assumed to be 20,000 Da. To assess the heat of dilution, control experiments were performed by titration of an appropriate titrant into PBS.” left out

Series [12] deals with E. coli. Briefly: LIVE/DEAD SYTO9/PI bacterial viability staining, fluorescence microscopy. The series is classed as cell-based, Escherichia coli. The following applies: 4, 8 and 16 µg/mL (1×, 2×, 4× MIC); at least two independent replicates. The method, then:
as §4

The mark [13] stands for this setting: 1.3 mM POPG LUVs into lipopeptide, PBS, single transition or first line of two binding events.
Where [14] appears, read: intersection of two fitted lines.

As to `CCCCCCCCCCCCCCCC(=O)NCC[C@H](NC(=O)[C@@H](N)CCCCN)C(=O)N[C@@H](CCCCN)C(N)=O` [K(DabC16)K-NH2] (H-Lys-[Dab](Palmitoyl)-Lys-NH2), the “IC50, MCF-7 (48h)” value in [1] came to 16.28 ± 1.02 µg/mL (≈ 26.6 µM). In addition, the “IC50, LNCaP (48h)” value in [2] is given as 14.3 ± 0.45 µg/mL (≈ 23.4 µM). Moreover, in series [3], the “IC50, A549 (48h)” value was over 25 µg/mL. For the same compound, the “IC50, HT-29 (48h)” value in series [4] was determined as 21.56 ± 0.22 µg/mL (≈ 35.2 µM). The “IC50, HCT-116 (48h)” value in series [5] turned out to be 16.79 ± 0.34 µg/mL (≈ 27.4 µM). Also, in series [6], the “IC50, A375 (48h)” value came out at 11.99 ± 0.38 µg/mL (≈ 19.6 µM). In addition, the “pKITC, POPG” value in [7] (setting [13]) came out at 8.09 ± 0.37; in series [7] (second line printed for the peptide (second binding event)), 6.59 ± 0.26. The “γCAC, surface tension at the CAC point” value in [8] came out at 39.8 mN/m. For the same compound, the “Critical aggregation concentration (CAC)” value came to 4.0 mg/mL in series [8] and 6.6 mM in series [8] (setting [14]).
Consider `CCCCCCCCCCCCCCCC(=O)NCCCC[C@H](NC(=O)[C@@H](N)CCCCN)C(=O)N[C@@H](CCCCN)C(N)=O` [K(KC16)K-NH2], for which, in [1], the “IC50, MCF-7 (48h)” value was 22.71 ± 0.79 µg/mL (≈ 35.5 µM). Also, in [2], the “IC50, LNCaP (48h)” value is reported as over 25 µg/mL. In addition, in series [3], the “IC50, A549 (48h)” value was over 25 µg/mL. The “IC50, HT-29 (48h)” value in [4] was found to be 21.97 ± 1.10 µg/mL (≈ 34.3 µM). Further, the “IC50, HCT-116 (48h)” value in [5] is 20.72 ± 0.62 µg/mL (≈ 32.4 µM). Besides, in series [6], the “IC50, A375 (48h)” value amounted to 20.34 ± 1.47 µg/mL (≈ 31.8 µM). Also, the “pKITC, POPG” value in series [7] (setting [13]) was found to be 5.66 ± 0.11. Also, in series [8], the “γCAC, surface tension at the CAC point” value was found to be 43.0 mN/m and the “Critical aggregation concentration (CAC)” value is recorded as 3.5 mg/mL. The “Critical aggregation concentration (CAC)” value in series [8] (setting [14]) is on record as 5.4 mM.
`CCCCCCCCCCCCCCCC(=O)NCCC[C@H](NC(=O)[C@@H](N)CCCCN)C(=O)N[C@@H](CCCCN)C(N)=O` [K(OC16)K-NH2]: in series [1], the “IC50, MCF-7 (48h)” value is given as 15.47 ± 1.04 µg/mL (≈ 24.7 µM). Moreover, the “IC50, LNCaP (48h)” value in [2] was over 25 µg/mL. In addition, the “IC50, A549 (48h)” value in series [3] is over 25 µg/mL. In addition, the “IC50, HT-29 (48h)” value in series [4] came out at 20.51 ± 0.41 µg/mL (≈ 32.8 µM). Besides, the “IC50, HCT-116 (48h)” value in series [5] was 18.07 ± 0.54 µg/mL (≈ 28.9 µM). Also, the “IC50, A375 (48h)” value in [6] came to 21.60 ± 0.76 µg/mL (≈ 34.5 µM). Moreover, in series [9], the “first breakpoint of self-diffusion coefficient vs. concentration (premicellar state)” value is on record as “around 6 mM” and the “second breakpoint of self-diffusion coefficient vs. concentration (micellar state)” value is reported as “around 9 mM”. The “pKITC, POPG” value in [7] (setting [13]) is 5.79 ± 0.12. Moreover, in series [8], the “γCAC, surface tension at the CAC point” value is listed as 39.2 mN/m and the “Critical aggregation concentration (CAC)” value is reported as 3.7 mg/mL. Besides, the “Critical aggregation concentration (CAC)” value in series [8] (setting [14]) turned out to be 5.9 mM.
As for `CCCCCCCCCCCCCCCC(=O)NCCCC[C@H](NC(=O)[C@H](CCCCN)NC(=O)[C@@H](N)CCCCN)C(=O)N[C@@H](CCCCN)C(=O)N[C@@H](CCCCN)C(N)=O` [KK(KC16)KK-NH2] (H-KKK(Palmitoyl)KK-NH2), the “IC50, MCF-7 (48h)” value in [1] was over 25 µg/mL. Further, in series [10], the “membrane integrity of S. epidermidis cells (SYTO9/PI staining)” value is on record as “stained red”. The “pKITC1, LPS E. coli 055:B5” value in [11] (site 1) came to 7.67 ± 0.29. For the same compound, the “pKITC2, LPS E. coli 055:B5” value in series [11] (site 2) came out at 6.38 ± 0.14. Also, the “membrane integrity of E. coli cells (SYTO9/PI staining)” value in series [12] is “smaller number of red-stained cells than in the case of S. epidermidis”. In addition, in [2], the “IC50, LNCaP (48h)” value was over 25 µg/mL. Also, the “IC50, A549 (48h)” value in series [3] is recorded as over 25 µg/mL. In addition, the “IC50, HT-29 (48h)” value in [4] was 18.98 ± 0.38 µg/mL (≈ 21.2 µM). The “IC50, HCT-116 (48h)” value in series [5] amounted to 15.98 ± 0.16 µg/mL (≈ 17.8 µM). The “IC50, A375 (48h)” value in series [6] was over 25 µg/mL.
